In US11389447B2 (Janssen Sciences Ireland Unlimited Company, priority 2006, dated 2022):
Like-named read-outs stand apart in the source and are kept apart here.

Assays:
[1] = Kinetic study: plasma kinetics of TMC278 after single IM or SC injection of a nanosuspension; assay type: in vivo, male beagle dogs; conditions: male, beagle, dog, plasma, sc, 5 mg/kg; for concentration at 0 h / concentration at 1 h / concentration at 3 h / concentration at 8 h / concentration at 24 h / concentration at 48 h / concentration at 72 h / concentration at 144 h / concentration at 192 h / concentration at 240 h / concentration at 312 h / concentration at 384 h / concentration at 480 h / concentration at 648 h / concentration at 696 h / concentration at 864 h / concentration at 1032 h / concentration at 1200 h / concentration at 1368 h / concentration at 1536 h / concentration at 1704 h / concentration at 1872 h / concentration at 2040 h / concentration at 2208 h: plasma concentration of TMC278, single SC 5 mg/kg TMC278 nanosuspension; for AUC(0-t) / Cmax / Tmax: single SC 5 mg/kg TMC278 nanosuspension; for Cmax: read-out: Cmax; for Tmax: read-out: Tmax;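 for all read-outs here: healthy male beagle dogs injected in both biceps femoris muscles (IM) or both thoracal sides (SC), total volume 0.2 mL/kg, drug measured in plasma from blood samples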
Method: Six healthy male beagle dogs with body weights ranging from 8 to 16 kg at the start of the study, were used. Each dog was identified by an ear tattoo number. Two dogs were dosed intramuscularly (IM) in the left and right m. biceps femoris (treatment group A). […] Two dogs were dosed subcutaneously (SC) in the left and right thoracal region. The injection volume was 2×0.1 ml/kg in all treatment groups. A 20 G needle was used.
Blood samples of 3 ml were taken from the left jugular vein from all dogs on day 0 at 0 h (predose), 20 min, 1 h, 3 h, 8 h and 24 h post-dose and further on days 2, 3, 6, 8, 10, 13, 16, 20, 23, 27, 29, 36, 43, 50, 57, 64, 71, 78, 85 and 92 at approximately 8 AM. Blood samples were placed on EDTA, EDTA Vacuette Greiner, Cat. No. 454086, Greiner Labortechnik N.V.). Within 2 h of blood sampling, samples were centrifuged at room temperature at about 1900×g for 10 minutes to allow plasma separation. Plasma was immediately transferred into a second tube and stored in the freezer within 2 hours after the start of centrifugation.

[2] = system: wild type HIV; conditions: cited from earlier work
[3] = system: mutated variants of HIV; conditions: many of its mutated variants; cited from earlier work

Compound: Cc1cc(C=CC#N)cc(C)c1Nc1ccnc(Nc2ccc(C#N)cc2)n1 [TMC278, 4-[[4-[[4-(2-cyanoethenyl)-2,6-dimethylphenyl]amino]-2-pyrimidinyl]amino]benzonitrile]
- concentration at 0 h ([1]; dog 19129, 0 h (d0, predose)): < 1 ng/mL
- concentration at 1 h ([1]; dog 19129, 1 h): 1.62 ng/mL
- concentration at 3 h ([1]; dog 19129, 3 h): 7.96 ng/mL
- concentration at 8 h ([1]; dog 19129, 8 h): 27.6 ng/mL
- concentration at 24 h ([1]; dog 19129, 24 h (d1)): 15.7 ng/mL
- concentration at 48 h ([1]; dog 19129, 48 h (d2)): 34.8 ng/mL
- concentration at 72 h ([1]; dog 19129, 72 h (d3)): 26.1 ng/mL
- concentration at 144 h ([1]; dog 19129, 144 h (d6)): 18.9 ng/mL
- concentration at 192 h ([1]; dog 19129, 192 h (d8)): 17.7 ng/mL
- concentration at 240 h ([1]; dog 19129, 240 h (d10)): 24.3 ng/mL
- concentration at 312 h ([1]; dog 19129, 312 h (d13)): 21.7 ng/mL
- concentration at 384 h ([1]; dog 19129, 384 h (d16)): 21.7 ng/mL
- concentration at 480 h ([1]; dog 19129, 480 h (d20)): 29.8 ng/mL
- concentration at 648 h ([1]; dog 19129, 648 h (d27)): 19 ng/mL
- concentration at 696 h ([1]; dog 19129, 696 h (d29)): 21 ng/mL
- concentration at 864 h ([1]; dog 19129, 864 h (d36)): 12.7 ng/mL
- concentration at 1032 h ([1]; dog 19129, 1032 h (d43)): 5.22 ng/mL
- concentration at 1200 h ([1]; dog 19129, 1200 h (d50)): 6.37 ng/mL
- concentration at 1368 h ([1]; dog 19129, 1368 h (d57)): 4.78 ng/mL
- concentration at 1536 h ([1]; dog 19129, 1536 h (d64)): 6.45 ng/mL
- concentration at 1704 h ([1]; dog 19129, 1704 h (d71)): 3.96 ng/mL
- concentration at 1872 h ([1]; dog 19129, 1872 h (d78)): 3.66 ng/mL
- concentration at 2040 h ([1]; dog 19129, 2040 h (d85)): 8.6 ng/mL
- concentration at 2208 h ([1]; dog 19129, 2208 h (d92)): 3.05 ng/mL
- concentration at 0 h ([1]; dog 19349, 0 h (d0, predose)): < 1 ng/mL
- concentration at 1 h ([1]; dog 19349, 1 h): 1.37 ng/mL
- concentration at 3 h ([1]; dog 19349, 3 h): 8.42 ng/mL
- concentration at 8 h ([1]; dog 19349, 8 h): 13.8 ng/mL
- concentration at 24 h ([1]; dog 19349, 24 h (d1)): 28.5 ng/mL
- concentration at 48 h ([1]; dog 19349, 48 h (d2)): 29.1 ng/mL
- concentration at 72 h ([1]; dog 19349, 72 h (d3)): 30.6 ng/mL
- concentration at 144 h ([1]; dog 19349, 144 h (d6)): 32.7 ng/mL
- concentration at 192 h ([1]; dog 19349, 192 h (d8)): 23 ng/mL
- concentration at 240 h ([1]; dog 19349, 240 h (d10)): 42 ng/mL
- concentration at 312 h ([1]; dog 19349, 312 h (d13)): 38.8 ng/mL
- concentration at 384 h ([1]; dog 19349, 384 h (d16)): 16.6 ng/mL
- concentration at 480 h ([1]; dog 19349, 480 h (d20)): 21.2 ng/mL
- concentration at 648 h ([1]; dog 19349, 648 h (d27)): 11 ng/mL
- concentration at 696 h ([1]; dog 19349, 696 h (d29)): 10.5 ng/mL
- concentration at 864 h ([1]; dog 19349, 864 h (d36)): 5.49 ng/mL
- concentration at 1032 h ([1]; dog 19349, 1032 h (d43)): 6.03 ng/mL
- concentration at 1200 h ([1]; dog 19349, 1200 h (d50)): 3.4 ng/mL
- concentration at 1368 h ([1]; dog 19349, 1368 h (d57)): 2.52 ng/mL
- concentration at 1536 h ([1]; dog 19349, 1536 h (d64)): 2.05 ng/mL
- concentration at 1704 h ([1]; dog 19349, 1704 h (d71)): 3.57 ng/mL
- concentration at 1872 h ([1]; dog 19349, 1872 h (d78)): 1.91 ng/mL
- concentration at 2040 h ([1]; dog 19349, 2040 h (d85)): 2.82 ng/mL
- concentration at 2208 h ([1]; dog 19349, 2208 h (d92)): 2.49 ng/mL
- concentration at 0 h ([1]; mean of 2 dogs, 0 h (d0, predose)): < 1 ng/mL
- concentration at 1 h ([1]; mean of 2 dogs, 1 h): 1.5 ng/mL
- concentration at 3 h ([1]; mean of 2 dogs, 3 h): 8.19 ng/mL
- concentration at 8 h ([1]; mean of 2 dogs, 8 h): 20.7 ng/mL
- concentration at 24 h ([1]; mean of 2 dogs, 24 h (d1)): 22.1 ng/mL
- concentration at 48 h ([1]; mean of 2 dogs, 48 h (d2)): 32 ng/mL
- concentration at 72 h ([1]; mean of 2 dogs, 72 h (d3)): 28.4 ng/mL
- concentration at 144 h ([1]; mean of 2 dogs, 144 h (d6)): 25.8 ng/mL
- concentration at 192 h ([1]; mean of 2 dogs, 192 h (d8)): 20.4 ng/mL
- concentration at 240 h ([1]; mean of 2 dogs, 240 h (d10)): 33.2 ng/mL
- concentration at 312 h ([1]; mean of 2 dogs, 312 h (d13)): 30.3 ng/mL
- concentration at 384 h ([1]; mean of 2 dogs, 384 h (d16)): 19.2 ng/mL
- concentration at 480 h ([1]; mean of 2 dogs, 480 h (d20)): 25.5 ng/mL
- concentration at 648 h ([1]; mean of 2 dogs, 648 h (d27)): 15 ng/mL
- concentration at 696 h ([1]; mean of 2 dogs, 696 h (d29)): 15.8 ng/mL
- concentration at 864 h ([1]; mean of 2 dogs, 864 h (d36)): 9.1 ng/mL
- concentration at 1032 h ([1]; mean of 2 dogs, 1032 h (d43)): 5.63 ng/mL
- concentration at 1200 h ([1]; mean of 2 dogs, 1200 h (d50)): 4.89 ng/mL
- concentration at 1368 h ([1]; mean of 2 dogs, 1368 h (d57)): 3.65 ng/mL
- concentration at 1536 h ([1]; mean of 2 dogs, 1536 h (d64)): 4.25 ng/mL
- concentration at 1704 h ([1]; mean of 2 dogs, 1704 h (d71)): 3.77 ng/mL
- concentration at 1872 h ([1]; mean of 2 dogs, 1872 h (d78)): 2.79 ng/mL
- concentration at 2040 h ([1]; mean of 2 dogs, 2040 h (d85)): 5.71 ng/mL
- concentration at 2208 h ([1]; mean of 2 dogs, 2208 h (d92)): 2.77 ng/mL
- AUC(0-t) ([1]; dog 19129, read-out: AUC0-312 h): 6910 ng·h/mL
- AUC(0-t) ([1]; dog 19129, read-out: AUC0-696 h): 15900 ng·h/mL
- AUC(0-t) ([1]; dog 19129, read-out: AUC0-2208 h): 26400 ng·h/mL
- Cmax ([1]; dog 19129): 34.8 ng/mL
- Tmax ([1]; dog 19129): 48 h
- AUC(0-t) ([1]; dog 19349, read-out: AUC0-312 h): 9880 ng·h/mL
- AUC(0-t) ([1]; dog 19349, read-out: AUC0-696 h): 16700 ng·h/mL
- AUC(0-t) ([1]; dog 19349, read-out: AUC0-2208 h): 22400 ng·h/mL
- Tmax ([1]; dog 19349): 240 h
- AUC(0-t) ([1]; mean of 2 dogs, read-out: AUC0-312 h): 8400 ng·h/mL
- AUC(0-t) ([1]; mean of 2 dogs, read-out: AUC0-696 h): 16300 ng·h/mL
- AUC(0-t) ([1]; mean of 2 dogs, read-out: AUC0-2208 h): 24400 ng·h/mL
- Cmax ([1]; mean of 2 dogs): 38.4 ng/mL
- Tmax ([1]; mean of 2 dogs): 144 h
- activity against wild type HIV (in words) [2]: pronounced activity
- activity against mutated variants of HIV (in words) [3]: pronounced activity
